Results on five compounds are retold here after patent US9878054B2, “Polypeptide and lipophilic moiety conjugate compositions, formulations, and uses related thereto” (Tufts Medical Center, Inc., priority 2012, dated 2018).

For data set [1], the system named is human platelets (thrombin). The experiment in a line: Thrombin-induced aggregation of human platelets. The following applies: 3 μM compound. The data set is classed as cell-based. On the procedure: A, Depiction of the mechanism of action of the cell-penetrating PZ-128 pepducin compound targeting the third intracellular loop (red) of PAR1. B, The NMR structure of PZ-128 was determined by simulated annealing methods using 210 distance restraints and included restraints to the proximal 3 hydrocarbons of the lipid. […] D, PZ-128 inhibits PAR1-dependent platelet aggregation. Gel filtered human platelets were treated with various concentrations of PZ-128 and then challenged with the PAR1 agonist SFLLRN (2.5 μM), 20 μM ADP, 200 μM AYPGKF or 1 mg/ml Ristocetin. E, Human platelets were treated with 3 μM PZ-128, 3 μM RWJ-56110, or 5% dextrose vehicle before the addition of various concentrations of thrombin (n=3-5).
PZ-128 also markedly right-shifted thrombin-induced aggregation by 5-fold. By comparison, the small molecule RWJ-56110 which antagonizes PAR1 at the extracellular ligand-binding site gave a 2-fold right shift in the thrombin activation curve of human platelets.
Whole blood from healthy donors was collected into a 30 ml syringe containing sodium citrate (0.4% vol/vol final). Platelets were isolated from platelet rich plasma (PRP) using Sepharose 2B columns in modified PIPES buffer.

Another data set concerns human whole blood. The experiment in a line: Activated clotting time (ACT) of blood from PCI patients. The settings on record: iv 0.75 mg/kg bolus then 1.75 mg/kg/hr, 30 min. The protocol:
PZ-128 (χ) was spiked at various concentrations (0-150 μM) into fresh whole blood obtained from patients just prior to PCI. By comparison, blood was obtained at the 30 min time point from PCI patients (n=22) after a weight-adjusted dosage of bivalirudin (•) administered intravenously as a 0.75 mg/kg bolus followed by continuous infusion of 1.75 mg/kg/hr during the procedure. ACT assays were performed immediately using a Hemochron 801 with FTCA510-4 ACT cartridges containing silica, phospholipids, and diatomaceous earth (kaolin). The open circle represents the mean (±SD) ACT and mean bivalirudin concentration at the 30 min time point in the 22 PCI patients.
The effects of PZ-128 micelles were measured on activated clotting time (ACT) in human blood samples freshly obtained from adult patients undergoing PCI. At concentrations of PZ-128 up to 150 μM, there were no effects on ACT in the human PCI blood samples (FIG. 5).
Adult outpatients with angina referred for coronary angiography or PCI were enrolled in the Tufts Medical Center Adult Cardiac Catheterization Laboratory. Blood was collected prior to PCI or angiography and PZ-128 micelles were spiked into 1 ml samples of whole blood at a range of final concentrations (0-150 μmol/L). ACT was measured immediately in duplicate. […] Bivalirudin concentrations in plasma were measured by LC/MS/MS.

In data set [2] the test system is guinea pig carotid artery thrombosis. The experiment in a line: Guinea pig carotid artery FeCl3 injury arterial thrombosis model. The settings on record: sub-therapeutic dose alone (PZ-128 0.05 mg/kg; clopidogrel 1 mg/kg PO). The data set is classed as in vivo. The protocol:
A carotid artery FeCl3 injury model was used in guinea pigs to assess the anti-thrombotic efficacy of PZ-128 micelles within 15 min of initiation of drug administration. FeCl3 denudes the artery and exposes type I collagen and other subendothelial matrix proteins to initiate platelet-dependent thrombosis. Guinea pigs received 10 min intravenous infusions of PZ-128 micelles, 5 min prior to carotid artery injury. […] Mean occlusion times increased by 4-fold to 40 min at doses above 0.05 mg/kg PZ-128.
Male Hartley guinea pigs (150˜220 g) were purchased from Charles River Laboratories. A 0.61 mm-diameter catheter was inserted into the left jugular vein of anesthetized animals for administration of infusions of 5% USP dextrose vehicle or PZ-128 micelles. A 0.5 V-Doppler probe (Transonic Systems, Ithaca, N.Y.) was placed around the right carotid artery to record blood flow. A range of doses of PZ-128 micelles from 0.05 to 1.6 mg/kg in 0.9 ml volumes were delivered at an injection rate of 0.09 ml/min by a Harvard syringe pump. Five minutes after the infusion ended, arterial thrombosis was induced by placing a 5×5 mm^2 piece of filter paper soaked in freshly made 20% FeCl3 solution on the right carotid artery 5 mm distal to the probe for 20 minutes. […] To examine possible synergistic effects of PZ-128 micelles and P2Y12-ADP receptor inhibition, 1 mg/kg clopidogrel was administered by oral gavage 4 hours prior to FeCl3 injury. In these synergy experiments, the maximum endpoint was set at 90 minutes for occlusion time.

For data set [3] the following is noted: cited from earlier work.
Another data set concerns PAR1. The following applies: read-out: EC50, activation of guinea pig platelets; PRP from vehicle-treated guinea pigs.

As for `NCC[C@H](NC(=O)[C@H](Cc1ccc(F)c(F)c1)NC(=O)Nc1ccc2c(CN3CCCC3)cn(Cc3c(Cl)cccc3Cl)c2c1)C(=O)NCc1ccccc1` [RWJ-56110, reference compound], in data set [1], the “Right shift of thrombin-induced aggregation curve” value came to 2 fold.

In the case of `CC[C@H](C)[C@H](NC(=O)[C@H](CCC(=O)O)NC(=O)[C@H](CCC(=O)O)NC(=O)[C@H](Cc1ccccc1)NC(=O)[C@H](CC(=O)O)NC(=O)CNC(=O)[C@H](CC(N)=O)NC(=O)CNC(=O)CNC(=O)CNC(=O)CNC(=O)[C@@H]1CCCN1C(=O)[C@H](CCCNC(=N)N)NC(=O)[C@@H]1CCCN1C(=O)[C@H](N)Cc1ccccc1)C(=O)N1CCC[C@H]1C(=O)N[C@@H](CCC(=O)O)C(=O)N[C@@H](CCC(=O)O)C(=O)N[C@@H](Cc1ccc(O)cc1)C(=O)N[C@@H](CC(C)C)C(=O)O` [bivalirudin], the “Activated clotting time (ACT)” value in the data set on human whole blood is recorded as “highly elevated”.

Turning to `COC(=O)[C@H](c1ccccc1Cl)N1CCc2sccc2C1` [clopidogrel, reference compound], the “Protection against arterial occlusion when used alone” value in data set [2] is recorded as “non-significant protection”.

Turning to `CCOC(=O)N[C@@H]1CC[C@@H]2[C@@H](C1)C[C@H]1C(=O)O[C@H](C)[C@H]1[C@H]2/C=C/c1ccc(-c2cccc(F)c2)cn1` [vorapaxar], the “Pharmacodynamic (PD) half-life” value in data set [3] (oral administration) is listed as “up to 3 weeks”. Besides, the Plasma half-life in data set [3] (single loading dose) is 120 to 264 h.

For orientation: EC50 means the concentration giving half of the maximal effect. As to SFLLRN, the EC50 in the data set with PAR1 was determined as 2500 nM.
